From patent US20110166105A1, “ANTIMICROBIAL WASH AND CARRIER SOLUTIONS AND USES THEREOF” (TEVA ANIMAL HEALTH, INC., priority 2002, published 2011)

Experiment: Antimicrobial preservative effectiveness (APE), USP 25 test 51
Format: cell-based
Settings: pH 8.5
Method: Various concentrations of benzyl alcohol were tested for antimicrobial preservative effectiveness (APE) using the USP 25 test 51 (U.S. Pharmacopeia 25, U.S. Pharmacopeia, MD (2001)). The formulations below are based on the formulation designated as 940-16 C (with a slightly higher pH) in Example 2 above with varying benzyl alcohol concentrations. The table below summarizes the results of these studies. Antimicrobial activity can be measured by any standard assay known to those of skill in the art (e.g., USP 25 antimicrobial preservative effectiveness (APE) test 51 (U.S. Pharmacopeia 25, U.S. Pharmacopeia, MD (2001)).

OCc1ccccc1 [benzyl alcohol]
USP antimicrobial preservative requirement: meets the USP antimicrobial preservative requirement
